Tests used:
[1] = xn = mol fraction of the nth substance listed; conditions: 298.15 K, 101.3 kPa, Liquid; for speed of sound: Sing-around technique in a fixed-path interferometer
[2] = refractive index (Na D-line) (dimensionless); xn = mol fraction of the nth substance listed; conditions: 298.15 K, 101.3 kPa, Liquid, Standard Abbe refractometry
[3] = Liquid; for mass density / speed of sound: 298.15 K; for mass density: 101.33 kPa, Vibrating tube method; for speed of sound: Sing-around technique in a fixed-path interferometer
[4] = refractive index (Na D-line) (dimensionless); conditions: 298.15 K; 101.33 kPa; Liquid; Standard Abbe refractometry

CC(C)CCO [3-methylbutan-1-ol] + CCCO
Conditions | mass density, [1] [kg/m3] | refractive index, [2] | speed of sound, [1] [m/s]
x2 = 0.05 | 806.4 | 1.40447 | 1234.4
x2 = 0.1 | 806.12 | 1.40366 | 1233.5
x2 = 0.15 | 805.83 | 1.40281 | 1232.3
x2 = 0.201 | 805.54 | 1.402 | 1231.1
x2 = 0.251 | 805.25 | 1.40115 | 1230
x2 = 0.3 | 804.97 | 1.4002 | 1228.8
x2 = 0.351 | 804.66 | 1.39919 | 1227.5
x2 = 0.4 | 804.37 | 1.3983 | 1226.2
x2 = 0.45 | 804.07 | 1.39734 | 1224.9
x2 = 0.5 | 803.75 | 1.39621 | 1223.4
x2 = 0.551 | 803.41 | 1.39507 | 1222
x2 = 0.6 | 803.08 | 1.39396 | 1220
x2 = 0.65 | 802.72 | 1.39278 | 1218.5
x2 = 0.7 | 802.34 | 1.39148 | 1217
x2 = 0.749 | 801.96 | 1.39035 | 1215.3
x2 = 0.799 | 801.55 | 1.38898 | 1213.6
x2 = 0.85 | 801.13 | 1.38757 | 1211.8
x2 = 0.9 | 800.69 | 1.3861 | 1210
x2 = 0.95 | 800.22 | 1.38458 | 1208.2

CCCO [propan-1-ol]
Conditions | mass density [kg/m3] | refractive index | speed of sound [m/s]
[3] | 799.75 | – | 1205.7
[4] | – | 1.38304 | –

Conditions | vapor or sublimation pressure [kPa]
[3], 370.29 K | 101.3

CCC(C)CO (stereo unspecified) [2-methyl-1-butanol] + CCCO
Conditions | mass density, [1] [kg/m3] | refractive index, [2] | speed of sound, [1] [m/s]
x2 = 0.051 | 814.37 | 1.40768 | 1252.4
x2 = 0.1 | 813.84 | 1.40677 | 1250.6
x2 = 0.151 | 813.28 | 1.40573 | 1248.7
x2 = 0.2 | 812.71 | 1.40478 | 1246.8
x2 = 0.251 | 812.09 | 1.4038 | 1244.7
x2 = 0.3 | 811.46 | 1.40272 | 1242.8
x2 = 0.351 | 810.8 | 1.40164 | 1240.5
x2 = 0.408 | 810.04 | 1.40039 | 1238
x2 = 0.45 | 809.44 | 1.39934 | 1236.1
x2 = 0.501 | 808.69 | 1.39815 | 1233.7
x2 = 0.55 | 807.94 | 1.39697 | 1231.3
x2 = 0.6 | 807.14 | 1.39556 | 1228.8
x2 = 0.65 | 806.3 | 1.39422 | 1226.2
x2 = 0.7 | 805.38 | 1.39279 | 1223.2
x2 = 0.75 | 804.5 | 1.39133 | 1220.7
x2 = 0.801 | 803.53 | 1.38982 | 1217.6
x2 = 0.85 | 802.6 | 1.38815 | 1214.8
x2 = 0.899 | 801.61 | 1.38658 | 1211.8
x2 = 0.949 | 800.64 | 1.38483 | 1208.7

CCC(C)CO (stereo unspecified) [2-methyl-1-butanol]
Conditions | mass density [kg/m3] | refractive index | speed of sound [m/s]
[3] | 814.87 | – | 1253.3
[4] | – | 1.40872 | –

Conditions | vapor or sublimation pressure [kPa]
[3], 401.93 K | 101.3

CC(C)CCO [3-methylbutan-1-ol]
Conditions | mass density [kg/m3] | refractive index | speed of sound [m/s]
[3] | 806.78 | – | 1238.8
[4] | – | 1.40515 | –

Conditions | vapor or sublimation pressure [kPa]
[3], 404.27 K | 101.3

From the NIST ThermoML archive (doi:10.1021/je0502142)
